Data as given in US7235548B2, “Compounds and their use as positive AMPA receptor modulators” (NeuroSearch A/S, priority 1998, dated 2007).

What was measured:
AMPA receptors = assay: AMPA evoked single neuron spike activity in rat hippocampus (iontophoretic application of AMPA), in vivo; conditions: for AMPA evoked spike activity: rat hippocampus
Source text: Evaluation of the in vivo effects of positive AMPA modulators (PAMs) on the AMPA evoked spike activity in rat hippocampus. Hippocampal single neuron spike activity is strongly influenced by excitatory input, and iontophoretic application of AMPA induces spike activity in vivo in a dose-dependent manner ([…] et al. 1998). […] PAMs potentate AMPA receptor activation in vitro, and if this mechanism also operates in vivo, the i.v. injection of an PAM should enhance AMPA evoked spike activity. Thus, the aim of this study was to test the in vivo effect of a group of in vitro active PAMs. This have been done by studying their ability to enhances AMPA evoked spike activity after i.v. administration. Experiments were performed on male Wistar rats (M & B, Denmark) weighing 280-380 g, housed in two per cage with free access to food and water. […] Additional anaesthetic was given i.v. if the rat responded to a pinch of the back foot. The trachea was cannulated and the rats were placed in a stereotaxic frame and ventilated by a rodent ventilator (Ugo Basile, Comerio-Varese, Italy). Core body temperature was maintained at 37.5° C. by a DC heating pad. The left and dorsal part of the parietal bone was removed by craniotomy and the dura was withdrawn exposing the pia mater and underlying brain, covered with 0.9% NaCl. AMPA (Sigma, USA) was dissolved at 10 mM in 0.2 M NaCl. NMDA (Sigma, USA) was dissolved at 100 mM in 100 mM NaCl. Both solutions were adjusted to pH 7.5-8.0 with NaOH. COMPOUND 61 was dissolved in 200 mM CH3SO3^- Na^+ at a contration of 10 mM for iontophoretic application ([…]) and in isotonic glucose (278 mM) for i.v. administration. Cyclothiazide, COMPOUND 63, COMPOUND 56, COMPOUND 115 and COMPOUND 114 were all dissolved at in 5% chremophore solution at a concentration of 5 mg ml^-1. Evoked neuronal spike activity was analyzed on-line by a computer, saving single spikes and time of event. Neuronal spike activity (number of action potentials s^-1) was monitored on a pulse rate histogram together with indicators for AMPA, COMPOUND 61 and vehicle application. Extracellular recordings of single hippocampal neuron spikes were made with five-barrel glass microelectrodes (5B120F-6, World Precision Instruments Inc., Sarasota, Fla., USA) with a tip diameter of 10-12 μm. The individual barrels were filled with 5 M NaCl (recording), 400 mM NaCl (current balancing), 10 mM COMPOUND 61 in 200 mM CH3SO3^- Na^+ (pH 4.7), 200 mM CH3SO3^- Na^+ (pH 4.7, Vehicle), and the last barrel was filled with the AMPA. Experiments were performed on hippocampal neurons (A=5.5-6.5 mm, L=1.5-2.0 mm, H=2.0-3.0 mm, according to Paxinos & Watson, 1986). Neuronal spike activity was evoked by iontophoretic application of AMPA for periods of 10 to 15 s with 1.5 min intervals. Single neuron spike activity was amplified 5000 times with a bandwidth of 0.3 and 3 kHz (CyberAmp 320 with a Al 402 x50 smartprobe, Axon Instruments, California, USA). On-line and off-line analyses were performed by the Spike2 program with a 1401 plus interface (Cambridge Electronic Design Limited, England). The computer program also recorded mean arterial blood pressure and monitored and controlled iontophoretic application. AMPA was ejected into hippocampus in regular cycles of 100-105 s. […] Recording of neuronal spike activity was continued for at least 45 min after intravenous injection. The PAM reactivity was tested by microiontophoretic application of COMPOUND 61 (20 nA, FIG.).

[1] = system: AMPA induced [3H]GABA release from cultured cortical neurons; assay: Potentiation of AMPA induced [3H]GABA release from cultured cortical neurons; assay type: cell-based, mouse; conditions: 5 μM AMPA; expressed relative to potentiation induced by 30 μM cyclothiazide; FIGS. 1 and 2
Procedure: Neurons which express receptors for excitatory amino acids can be depolarized by such compounds and this depolariztion will ultimately lead to a release of transmitter substance from the neurons. Cultured neurons obtained from 16-day-old mouse embryo cortex are mainly GABAergic and express all types of excitatory amino acid receptors. This means that they can be stimulated by high potassium (55 mM) or by the excitatory amino acids NMDA (20 μM), AMPA (5 μM) and kainate (5 μM) to release their neurotransmitter GABA.
^3H-GABA may be used to label the GABA transmitter pool in the neurons and the release of ^3H-GABA from the neurons may be used as a simple functional model for studies of the effects of excitatory amino acid receptor agonists, antagonists, and modulators.
Cerebral cortices of 15–16 day-old NMRI mouse embryos are chopped in 0.4×0.4 mm cubes and the tissue is dissociated by mild trypsinization (0.1% (wt/vol) trypsin, 37° C., 10 min). Subsequently the cell suspension (3 mill/ml) is inoculated into poly-L-lysine-coated 30 mm Petri dishes (3 ml/dish) containing a slightly modified DMEM (24.5 mM KCl) supplemented with p-aminobenzoate (7 μM), insulin (100 mU/L) and 10% (vol/vol) horse serum. Cells are maintained in culture for 5–7 days with the addition of the antimitotic agent cytosine arbinoside (5 μM) from day 2 in vitro to prevent glial proliferation. […]

Q: Which “onset of the enhancement after i.v. administration” value (AMPA receptors; 10 mg kg^−1 i.v.) does the source give for CN1CCN(S(=O)(=O)c2ccc3c(c2)S(=O)(=O)NC(C2CCCCC2)N3)CC1 (stereo not shown) [Compound 61, 3-Cyclohexyl-7-(4′-methylpiperazino)sulfonyl-1,2,3,4-tetrahydro-1,2,4-benzothiadiazine-1,1-dioxide] here?
A: 20 min

Q: And the “AMPA evoked spike activity” value (AMPA receptors; 10 mg kg^−1 i.v.)?
A: enhanced

Q: What about the “increase in AMPA evoked spike activity” value (AMPA receptors; 10 mg kg^−1 i.v., FIG. 14) of the same molecule?
A: 3 fold

Q: What about the “AMPA evoked spike activity” value (AMPA receptors; iontophoretic application of the compound (20 nA)) of the same molecule?
A: enhanced

Q: For Cc1cc2c(cc1S(=O)(=O)N1CCCCC1)S(=O)(=O)NC(C1CCCC1)N2 (stereo not shown) [Compound 114, 3-Cyclopentyl-6-methyl-7-piperidinosulfonyl-1,2,3,4-tetrahydro-1,2,4-benzothia-diazine-1,1-dioxide], which “potentiation of AMPA induced [3H]GABA release” value [1] is on record?
A: potentiation

Q: And the “AMPA evoked spike activity” value (AMPA receptors; 10 mg kg^−1 i.v.)?
A: enhanced

Q: And the “increase of the AMPA responses” value (AMPA receptors; 10 mg kg^−1 i.v., control level of the AMPA responses low, FIG. 15)?
A: 10 fold

Q: And the “AMPA response after administration” value (AMPA receptors; 10 mg kg^−1 i.v., larger control responses, from 124, FIG. 16)?
A: 204 spikes response^−1

Q: What about the “enhancement of the AMPA responses” value (AMPA receptors; 10 mg kg^−1 i.v., larger control responses, FIG. 16) of the same molecule?
A: approximately doubled

Q: And the “AMPA response after administration, mean response” value (AMPA receptors; 10 mg kg^−1 i.v., low control level, from 21, FIG. 15)?
A: 209 spikes response^−1

Q: Which results are given for O=S1(=O)NC(C2CCCCC2)Nc2ccc(S(=O)(=O)N3CCOCC3)cc21 (stereo not shown) [Compound 63, 3-Cyclohexyl-7-morpholinosulfonyl-1,2,3,4-tetrahydro-1,2,4-benzothiadiazine-1,1-dioxide]?
A: initial effect on the AMPA responses (AMPA receptors; 10 mg kg^−1 i.v., before onset of enhancement): initial inhibition; large AMPA responses, evoked by high intensity AMPA stimulation (AMPA receptors; 10 mg kg^−1 i.v., high intensity AMPA (17 nA)): only marginal effect; small AMPA responses, evoked by low intensity AMPA stimulation (AMPA receptors; 10 mg kg^−1 i.v., low intensity AMPA (12 nA)): enhanced

Q: Which results are given for Cc1cc2c(cc1S(=O)(=O)N1CCOCC1)S(=O)(=O)NC(C1CCCCC1)N2 (stereo not shown) [Compound 115, 3-Cyclohexyl-6-methyl-7-morpholinosulfonyl-1,2,3,4-tetrahydro-1,2,4-benzothiadiazine-1,1-dioxide]?
A: potentiation of AMPA induced [3H]GABA release [1]: potentiation; onset of the enhancement after i.v. administration (AMPA receptors; 10 mg kg^−1 i.v.): 2 min; AMPA evoked spike activity (AMPA receptors; 10 mg kg^−1 i.v.): enhancement
